Reference: patent US20250008983A1, “COMPOSITIONS CONTAINING PEROXYACIDS TO CONTROL PATHOGEN GROWTH IN ANIMAL FEED AND RELATED METHODS” (KEMIN INDUSTRIES, INC., priority 2023, published 2025)
Converted amounts (≈) assume the structure as drawn. Like-named read-outs stand apart in the source and are kept apart here.

Key:
Format in all cases: cell-based
[1] = test system: Salmonella enterica isolated from layer feed; test: Preliminary in vitro feed assay, Salmonella count in contaminated feed over 21 days; conditions: 15 kg/ton
Procedure: (§1) Preparation of the treatment. Perpropionic acid, peracetic acid, mixture of peroctanoic acid and perdecanoic acid (PC8/PC10) and Sal CURB products were used without any further dilution or mixing. The peroxy mix was prepared by mixing peracetic and perpropionic acid in 1:1 weight ratio. Briefly, 1.0 g of peroxy mix was prepared by weighing 0.5 g of peracetic acid into 0.5 g of perpropionic acid. The mixture was mixed well prior to usage. Similar procedure was followed in the preparation of 3% sulphuric acid (where […] of water) and peroxy mix with ester (where 0.9 g of peroxy mix (prepared with peracetic and propionic acid) was mixed with 0.1 g of propylene glycol propionate esters). […] Briefly, 1 mL of 75% phosphoric acid was added to 10 mL of Pro-Oxine solution and mixed well. The mixture is covered and let to stand for 10 mins prior to usage.
(§2) Preparation of stock feed inoculum. The researchers prepared contaminated feed from known methods, where Salmonella enterica isolated from layer feed was revived from the glycerol stock by plating a loopful of culture onto the TSAYE (i.e., tryptone soya agar supplemented with 0.6% yeast extract (CM0131B; Oxoid) prepared as per recommended) and incubate for 18-24 hours at 37° C. Following which, the colonies were collected aseptically with saline solution (i.e., 0.9% sodium chloride (V800372; Sigma-Aldrich) prepared in deionized water), yielding approximately 5 mL of biomass suspension. The biomass suspension was diluted accordingly to meet the contamination level required for the stock inoculum. No dilution was required for high contamination level of ca. 10^7 cfu/g whereas biomass suspension was diluted 1000 times to achieve lower contamination level of ca. 10^4 cfu/g in the stock inoculum. The stock feed inoculum was prepared by adding the biomass suspension (5 mL) into 100 g of sterile feed (made up with 7:3 ground corn and soybean, autoclaved at 121° C. for one hour and dried for 24 hours at 65° C.) with a syringe and needle, and homogenously mixed after. The stock feed inoculum was stored at 25° C. for a week. Salmonella count of the stock inoculum was determined using conventional plating method with XLD agar (i.e., Xylose lysine deoxycholate (CM0469B; Oxoid)) and BPW (i.e., buffered peptone water (CM0509B; Oxoid)) prior to usage. Briefly, three grams of stock feed inoculum was weighed into a 50 mL conical tube, diluted with 27 mL of BPW, homogenously mixed and left to stand for 30 minutes. The feed suspension was then serial diluted to the appropriate dilutions. An aliquot of 0.1 mL of the feed suspension was plated onto the agar at each dilution and incubated at 37° C. for 18-24 hours prior to enumeration. Plating was carried out in triplicates. Blank stock feed was prepared by adding 5 mL of saline into 100 g of sterile feed.
(§3) Preparation of the feed inoculum. The stock feed inoculum was diluted approximately 100 times with sterile feed where three grams of stock inoculum was added into 307 g of sterile feed and kept at 37° C. for 24 hours. The Salmonella count of the feed was determined prior to treatment. Briefly, 90 mL of BPW was added into 10 g of feed sample in a sterile bag (10^−1 dilution). The mixture was homogenously mixed with a stomacher at medium speed for three minutes and left to stand for 30 minutes. The feed supernatant was serial diluted to appropriate dilutions for plating. The plates were incubated at 37° C. for 18-24 hours prior to counting. If low Salmonella count was expected, the sample size was increased to 1 mL by plating 300, 300 and 400 uL onto three plates in triplicates for […] detection limit (10 cfu/g). Blank feed was prepared by adding three grams of blank stock feed into 307 g of sterile feed. In addition, an extra contaminated feed was prepared as a control.
(§4) Treatment of contaminated feed. […]

[2] = test system: Escherichia coli ATCC 25922; test: Minimum inhibitory concentration (MIC), broth microdilution; conditions: Escherichia coli
Procedure: Materials and Methods. The assay was conducted to determine the minimum inhibitory concentration (MIC) of peroxy-acids against Escherichia coli ATCC 25922. E. coli was purchased from American Type Culture Collection (ATCC). The strain was stored at −80° C. in glycerol. Prior to usage, E. coli was revived by streaking a loopful of culture onto TSAYE (i.e., tryptone soya agar yeast extract (CM0131 and LP0021; Oxoid) prepared as per recommended by Oxoid) with overnight incubation at 37° C. An overnight culture of E. coli was diluted in TSBYE (i.e, tryptone soya broth yeast extract (CM0129; Oxoid) prepared as per recommended by Oxoid) to obtain a cell suspension of ca. 10^5 CFU/mL. Subsequently, 100 μL of the diluted culture was added to 100 μL of the test solutions at the needed concentrations into a microtiter plate (92096; TPP Techno Plastic Products AG). Peroxy-acids were tested at an active concentration of 25-1600 μg/mL. Subsequently, the inoculated plate was incubated at 37° C. up to 48 hours with the bacterial cell density recorded at optical density (OD) 600 nm at 24 hours interval using a microplate reader (Varioskan LUX; Thermo Fisher).

[3] = test system: Salmonella enterica isolated from layer feed; test: In vitro feed assay, high Salmonella contamination level (~5 log cfu/g); conditions: 10.0 kg/ton
Procedure: as §1, §2, §3, §4

Enterobacteriaceae = test system: Enterobacteriaceae
Procedure: Materials and Method. Naturally contaminated layer feed was collected, ground, and mixed well prior to weighing. The ground feed was weighed and separated into 15 different bags, each containing 300 g. The product/prototype was accurately weighed at the needed dosage and adjusted to a total volume of 5 mL prior to adding into the 300 g of feed with a syringe and needle. Product/prototype was added in batches (i.e., 2, 2, and 1 mL separately) and mixed after each addition. Five mL of sterile water was added into the feed and served as the control. The treated feed samples were homogenized after treatment and kept at 25° C. until the day of enumeration.
TEC of the 15 samples were studied over a period of 22 days with enumeration interval at time points 0, 1 and 22 days. The effect of peroxy acid was neutralized at each time point prior to enumeration. At each time point, 20 mL of 0.1 M sodium thiosulphate was added into 10 g of each treated feed sample in a sterile bag. The mixture was mixed well and left to stand for 10 minutes. After 10 minutes, 70 mL of BPW was added to achieve 10^−1 dilution. The feed suspension was homogenously mixed and left to stand for 30 minutes. Subsequently, the feed suspension was serial diluted to appropriate dilutions for enumeration. 100 uL of the diluted samples were plated onto Violet Red Bile Glucose (VRBG; CM0485 from Oxoid) agar, prepared as per recommended by the supplier. An aliquot of 0.1 mL of the feed suspension was plated onto the agar at each dilution and incubated at 37° C. for 18-24 hours prior to enumeration. Plating was carried out in triplicates. If low TEC is expected, the sample size is increased to 1 mL by plating 300, 300 and 400 uL onto three plates in triplicates for lower detection limit (10 CFU/g). The diluted feed samples (at 10^−1 dilution factor) were kept at 37° C. for 18-24 hours for enrichment prior to streaking. A loopful of diluted feed suspension was streaked onto the VRBG agar and incubated at 37° C. for 18-24 hours to determine qualitatively the presence of Enterobacteriaceae for samples with undetectable TEC.

Q: Which Salmonella killing effect ([1]; over the 21 days) does the source give for O=S(=O)(O)O [3% w/w sulphuric acid, sulphuric acid] here?
A: The Salmonella killing effect was “No Salmonella killing effect”.

Q: And the Salmonella count ([1]; post-treatment Day 1)?
A: The Salmonella count was 5.80 log cfu/g.

Q: And the Salmonella count ([1]; post-treatment Day 6)?
A: The Salmonella count was 5.02 log cfu/g.

Q: And the Salmonella count ([1]; post-treatment Day 21)?
A: Its Salmonella count is 4.82 log cfu/g.

Q: And the Salmonella count ([1]; pre-treatment Day 0)?
A: Its Salmonella count is 5.59 log cfu/g.

Q: With CC(=O)OO [Peracetic acid, peracetic acid] as the compound, how does the MIC ([2]; ATCC25922, preliminary results, read-out: MIC) read?
A: Its MIC is 300 µg/mL (≈ 3.94 mM).

Q: What about the MIC ([2]; ATCC25922, no increment in OD over 48 hours, 37° C., read-out: Minimum inhibitory concentration (μg/mL) against E. coli) of the same compound?
A: Its MIC is 300 µg/mL (≈ 3.94 mM).

Q: What about the Salmonella count ([3]; post-treatment Day 1) of the same compound?
A: Its Salmonella count is 2.01 log cfu/g.

Q: What about the Salmonella count ([3]; post-treatment Day 2) of the same compound?
A: The Salmonella count was “BD (Salmonella count is below detection limit (1 log cfu/g))”.

Q: And the Salmonella count ([3]; post-treatment Day 3)?
A: The Salmonella count was “BD (Salmonella count is below detection limit (1 log cfu/g))”.

Q: What about the Salmonella count ([3]; post-treatment Day 6) of the same compound?
A: Its Salmonella count is 2.11 log cfu/g.

Q: And the Salmonella count ([3]; post-treatment Day 14)?
A: The Salmonella count was “BD (Salmonella count is below detection limit (1 log cfu/g))”.

Q: What about the Salmonella count ([3]; post-treatment Day 21) of the same compound?
A: Its Salmonella count is 1.12 log cfu/g.

Q: What about the Salmonella count ([3]; pre-treatment Day 0) of the same compound?
A: Its Salmonella count is 5.98 log cfu/g.

Q: And the Salmonella count ([1]; pre-treatment Day 0)?
A: The Salmonella count was 5.63 log cfu/g.

Q: What about the TEC (Enterobacteriaceae; 2.5 kg/ton, post treatment Day 1) of the same compound?
A: The TEC was <1.00 log CFU/g.

Q: And the TEC (Enterobacteriaceae; 2.5 kg/ton, post treatment Day 22)?
A: Its TEC is 3.32 log CFU/g.

Q: And the TEC (Enterobacteriaceae; 2.5 kg/ton, pre-treatment Day 0)?
A: The TEC was 3.37 log CFU/g.

Q: And the TEC (Enterobacteriaceae; 5.0 kg/ton, post treatment Day 1)?
A: Its TEC is 2.39 log CFU/g.

Q: And the TEC (Enterobacteriaceae; 5.0 kg/ton, post treatment Day 22)?
A: The TEC was <1.00 log CFU/g.

Q: What about the TEC (Enterobacteriaceae; 5.0 kg/ton, pre-treatment Day 0) of the same compound?
A: Its TEC is <2.00 log CFU/g.

Q: What about the TEC (Enterobacteriaceae; 10.0 kg/ton, post treatment Day 1) of the same compound?
A: Its TEC is 1.43 log CFU/g.

Q: And the TEC (Enterobacteriaceae; 10.0 kg/ton, post treatment Day 22)?
A: Its TEC is <1.00 log CFU/g.

Q: And the TEC (Enterobacteriaceae; 10.0 kg/ton, pre-treatment Day 0)?
A: Its TEC is 2.52 log CFU/g.
